US20250230147A1, “LACTAMS AS CBL-B INHIBITORS” (Genentech, Inc., priority 2021, published 2025)

Experiments:
[1] = target: c-Cbl (Homo sapiens (Human), UniProt P22681); assay: C-Cbl LCK Ub TR-FRET assay (c-cbl Lck HTRF); type: biochemical; settings: for (fold-selectivity): C-cbl Lck HTRF IC50 relative to Cbl-b Lck HTRF IC50
Experimental: 6 μL of detection mixture was added to all wells and briefly centrifuged before incubating for 20 min at room temperature. […] IC50 was generated using no LCK as the low control and DMSO as the high control.

[2] = target: Cbl-b (Homo sapiens (Human), UniProt Q13191); assay: Cbl-b LCK Ub TR-FRET assay (Cbl-b Lck HTRF); type: biochemical
Experimental: Compounds were 3-fold serially diluted in DMSO in a 384-well polypropylene plate (#P-05525-BC; Labcyte) to generate a source plate with 10 concentrations of each compound, top concentration=2 mM. 80 nL of DMSO or compounds were transferred to each well of a black 384-well ProxiPlate (#6008260; PerkinElmer) using a Labcyte Echo. 1×assay buffer (50 mM HEPES pH7.0, 100 mM NaCl, 0.01% BSA, 0.01% Triton-X100, 1 mM DTT), 2×enzyme solution (16 nM Biotin-Cbl-b or 12 nM Biotin-c-Cbl in 1× assay buffer), 2×kinase mixture (120 nM His-LCK, 1 mM ATP, 10 mM MgCl2 in assay buffer) and 2.33×detection mixture (4.66×solution 1: 163 nM Anti-HA-D2 antibody (#610HADAB; PerkinElmer), 27.96 nM Streptavidin-EU (#AD0062; PerkinElmer), 1.398 mM EDTA in 1×assay buffer+4.66×solution 2: 2.796 μM UBE2D2/Methylated-HA-Ubiquitin thioester adduct (BostonBiochem) in 1×assay buffer) were prepared. 4 μL of 2× enzyme solution was added to each well containing compound, briefly centrifuged to mix, and incubated for 60 min at room temperature. 4 μL of 2× kinase mixture was added, briefly centrifuged to mix, and incubated for 90 min. at room temperature. 6 μL of detection mixture was added to all wells and briefly centrifuged before incubating for 20 min at room temperature. Plates were read for TR-FRET using an Envision at excitation 340 nm, emission at 615 and 665 nm, 4 flashes per well. IC50 was generated using no LCK as the low control and DMSO as the high control.
Cbl-b Lck HTRF data in Table 7 is measured according to Example 76 herein; C-cbl Lck HTRF data is measured according to Example 76 herein.

Sequence of c-Cbl (P22681 47-435): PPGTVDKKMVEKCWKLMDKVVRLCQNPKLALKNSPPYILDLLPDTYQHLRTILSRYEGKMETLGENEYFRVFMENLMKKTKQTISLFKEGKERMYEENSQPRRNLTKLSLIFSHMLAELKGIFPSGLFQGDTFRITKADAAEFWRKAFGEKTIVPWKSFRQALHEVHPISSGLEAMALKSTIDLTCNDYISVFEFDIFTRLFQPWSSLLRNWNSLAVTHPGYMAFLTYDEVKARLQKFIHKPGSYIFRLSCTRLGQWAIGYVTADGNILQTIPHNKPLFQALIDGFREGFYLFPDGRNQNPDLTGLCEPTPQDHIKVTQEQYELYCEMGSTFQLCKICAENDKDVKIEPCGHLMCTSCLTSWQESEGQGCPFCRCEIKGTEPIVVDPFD
Sequence of Cbl-b (Q13191 40-426): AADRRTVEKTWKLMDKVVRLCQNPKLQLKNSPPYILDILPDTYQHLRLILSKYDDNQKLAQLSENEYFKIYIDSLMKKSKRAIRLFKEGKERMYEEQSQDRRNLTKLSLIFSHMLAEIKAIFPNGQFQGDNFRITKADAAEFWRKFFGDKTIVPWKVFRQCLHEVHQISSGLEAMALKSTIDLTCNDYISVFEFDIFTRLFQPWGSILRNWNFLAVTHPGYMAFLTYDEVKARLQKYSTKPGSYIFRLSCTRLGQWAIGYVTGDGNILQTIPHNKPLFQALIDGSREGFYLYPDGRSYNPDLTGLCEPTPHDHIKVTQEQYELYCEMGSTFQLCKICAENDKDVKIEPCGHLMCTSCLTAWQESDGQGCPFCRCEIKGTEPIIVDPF

Cn1cnnc1[C@H](F)C1(c2cccc(N3Cc4c(cc([C@@H](N)C5CC5)cc4C(F)(F)F)C3=O)c2)COC1 [Compound 53, 6-((S)-amino(cyclopropyl)methyl)-2-(3-(3-((R)-fluoro(4-methyl-4H-1,2,4-triazol-3-yl)methyl)oxetan-3-yl)phenyl)-4-(trifluoromethyl)isoindolin-1-one]
IC50 [1]: 63 nM | (fold-selectivity) [1]: 1.9x | IC50 [2]: 34 nM

Cn1cnnc1CC1(c2cccc(N3Cc4c(cc(CNC5CC6(COC6)C5)cc4C(F)(F)F)C3=O)c2)CC(F)(F)C1 [Compound 366, 6-((2-oxaspiro[3.3]heptan-6-ylamino)methyl)-2-(3-(3,3-difluoro-1-((4-methyl-4H-1,2,4-triazol-3-yl)methyl)cyclobutyl)phenyl)-4-(trifluoromethyl)isoindolin-1-one]
IC50 [1]: 27 nM | (fold-selectivity) [1]: (1.0x) | IC50 [2]: 26 nM

Cn1cnnc1CC1(c2cccc(N3Cc4c(cc(CN5CC[C@@H](CCl)C5)cc4C(F)(F)F)C3=O)c2)COC1 [Compound 101, (R)-6-((3-(chloromethyl)pyrrolidin-1-yl)methyl)-2-(3-(3-((4-methyl-4H-1,2,4-triazol-3-yl)methyl)oxetan-3-yl)phenyl)-4-(trifluoromethyl)isoindolin-1-one]
IC50 [1]: 23 nM | (fold-selectivity) [1]: 1.2x | IC50 [2]: 18 nM

Cn1cnnc1[C@H](F)C1(c2cccc(N3Cc4c(cc(CN5CC(O)(C6CC6)C5)cc4C(F)(F)F)C3=O)c2)COC1 [Compound 173, (R)-6-((3-cyclopropyl-3-hydroxyazetidin-1-yl)methyl)-2-(3-(3-(fluoro(4-methyl-4H-1,2,4-triazol-3-yl)methyl)oxetan-3-yl)phenyl)-4-(trifluoromethyl)isoindolin-1-one]
IC50 [1]: 83 nM | (fold-selectivity) [1]: 1.3x | IC50 [2]: 63 nM

Cn1cnnc1CC1(c2cc(NC3CCCC3)cc(N3Cc4c(cc(CNC5(C)CCC5)cc4C(F)(F)F)C3=O)c2)CC(F)(F)C1 [Compound 477, 2-(3-(cyclopentylamino)-5-(3,3-difluoro-1-((4-methyl-4H-1,2,4-triazol-3-yl)methyl)cyclobutyl)phenyl)-6-(((1-methylcyclobutyl)amino)methyl)-4-(trifluoromethyl)isoindolin-1-one]
IC50 [1]: 110 nM | (fold-selectivity) [1]: (3.4x) | IC50 [2]: 36 nM

CC(C)[C@H]1CN(C)CCN1Cc1cc2c(c(C(F)(F)F)c1)CN(c1cccc([C@]3([C@@H](F)c4nncn4C)CCO3)c1)C2=O (single isomer, unassigned) [Compound 261]
IC50 [1]: 150 nM | (fold-selectivity) [1]: (1.1x) | IC50 [2]: 140 nM

Cn1cnnc1CC1(c2cc(NCC3CCNCC3)nc(N3Cc4c(cc(CNC5(C)CCC5)cc4C(F)(F)F)C3=O)c2)CCC1 [Compound 339, 2-(4-(1-((4-methyl-4H-1,2,4-triazol-3-yl)methyl)cyclobutyl)-6-((piperidin-4-ylmethyl)amino)pyridin-2-yl)-6-(((1-methylcyclobutyl)amino)methyl)-4-(trifluoromethyl)isoindolin-1-one]
IC50 [1]: 360 nM | (fold-selectivity) [1]: (0.68x) | IC50 [2]: 530 nM

Cn1cnnc1CC1(c2cc(C3CC3)nc(N3Cc4c(cc(CNC5(C)CCC5)cc4C(F)(F)F)C3=O)c2)COC1 [Compound 300, 2-(6-cyclopropyl-4-(3-((4-methyl-4H-1,2,4-triazol-3-yl)methyl)oxetan-3-yl)pyridin-2-yl)-6-(((1-methylcyclobutyl)amino)methyl)-4-(trifluoromethyl)isoindolin-1-one]
IC50 [1]: 4.7 nM | (fold-selectivity) [1]: (0.83x) | IC50 [2]: 5.6 nM

Cn1cnnc1CC1(c2cccc(N3Cc4c(cc(CNC56CC(C5)C6)cc4C(F)(F)F)C3=O)c2)CC(F)(F)C1 [Compound 356, 6-((bicyclo[1.1.1]pentan-1-ylamino)methyl)-2-(3-(3,3-difluoro-1-((4-methyl-4H-1,2,4-triazol-3-yl)methyl)cyclobutyl)phenyl)-4-(trifluoromethyl)isoindolin-1-one]
IC50 [1]: 10 nM | (fold-selectivity) [1]: (0.81x) | IC50 [2]: 12 nM

CC[C@@H]1CC[C@H](c2cc3c(c(C(F)(F)F)c2)CN(c2cccc(C4(Cc5nncn5C)CC(F)(F)C4)c2)C3=O)N1 [Compound 476, 2-(3-(3,3-difluoro-1-((4-methyl-4H-1,2,4-triazol-3-yl)methyl)cyclobutyl)phenyl)-6-((2R,5R)-5-ethylpyrrolidin-2-yl)-4-(trifluoromethyl)isoindolin-1-one]
IC50 [1]: 39 nM | (fold-selectivity) [1]: (0.83x) | IC50 [2]: 47 nM

CC(C)[C@H]1CNCCN1Cc1cc2c(c(C(F)(F)F)c1)CN(c1cccc(C3([C@H](F)c4nncn4C)CCC3)c1)C2=O [Compound 217, 2-(3-(1-((S)-fluoro(4-methyl-4H-1,2,4-triazol-3-yl)methyl)cyclobutyl)phenyl)-6-(((S)-2-isopropylpiperazin-1-yl)methyl)-4-(trifluoromethyl)isoindolin-1-one]
IC50 [1]: 20 nM | (fold-selectivity) [1]: 1.2x | IC50 [2]: 17 nM

CC[C@H]1CN(Cc2cc3c(c(C(F)(F)F)c2)CN(c2cccc(C4(Cc5nncn5C)CC(F)(F)C4)c2)C3=O)CCN1 [Compound 427, (S)-2-(3-(3,3-difluoro-1-((4-methyl-4H-1,2,4-triazol-3-yl)methyl)cyclobutyl)phenyl)-6-((3-ethylpiperazin-1-yl)methyl)-4-(trifluoromethyl)isoindolin-1-one]
IC50 [1]: 16 nM | (fold-selectivity) [1]: (0.76x) | IC50 [2]: 21 nM

Cn1cnnc1[C@@H](F)C1(c2cccc(N3Cc4c(cc(CN5CC(C(F)F)C5)cc4C(F)(F)F)C3=O)c2)COC1 [Compound 138, (S)-6-((3-(difluoromethyl)azetidin-1-yl)methyl)-2-(3-(3-(fluoro(4-methyl-4H-1,2,4-triazol-3-yl)methyl)oxetan-3-yl)phenyl)-4-(trifluoromethyl)isoindolin-1-one]
IC50 [1]: 180 nM | (fold-selectivity) [1]: 1.8x | IC50 [2]: 98 nM

Cn1cnnc1[C@H](F)C1(c2cccc(N3Cc4c(cc(CN5CC[C@@H](F)C5)cc4C(F)(F)F)C3=O)c2)COC1 [Compound 80, 2-(3-(3-((R)-fluoro(4-methyl-4H-1,2,4-triazol-3-yl)methyl)oxetan-3-yl)phenyl)-6-(((R)-3-fluoropyrrolidin-1-yl)methyl)-4-(trifluoromethyl)isoindolin-1-one]
IC50 [1]: 290 nM | (fold-selectivity) [1]: 2.6x | IC50 [2]: 110 nM

Cn1cnnc1[C@@H](F)C1(c2cccc(N3Cc4c(cc(CN5CC6(CCC6)C5)cc4C(F)(F)F)C3=O)c2)COC1 [Compound 166, (S)-6-(2-azaspiro[3.3]heptan-2-ylmethyl)-2-(3-(3-(fluoro(4-methyl-4H-1,2,4-triazol-3-yl)methyl)oxetan-3-yl)phenyl)-4-(trifluoromethyl)isoindolin-1-one]
IC50 [1]: 310 nM | (fold-selectivity) [1]: 1.8x | IC50 [2]: 170 nM

Cn1cnnc1CC1(c2cccc(N3Cc4c(cc(CN5CC(C)(O)C5)cc4C(F)(F)F)C3=O)c2)CC(F)(F)C1 [Compound 17, 2-(3-(3,3-difluoro-1-((4-methyl-4H-1,2,4-triazol-3-yl)methyl)cyclo-butyl)phenyl)-6-((3-hydroxy-3-methylazetidin-1-yl)methyl)-4-(trifluoromethyl)isoindolin-1-one]
IC50 [1]: 14 nM | (fold-selectivity) [1]: 0.85x | IC50 [2]: 17 nM

CC(C)[C@H]1CN(C)CCN1Cc1cc2c(c(C(F)(F)F)c1)CN(c1cccc(C3([C@H](F)c4nncn4C)CC(F)(F)C3)c1)C2=O [Compound 190, 2-(3-(3,3-difluoro-1-((S)-fluoro(4-methyl-4H-1,2,4-triazol-3-yl)methyl)cyclobutyl)phenyl)-6-(((S)-2-isopropyl-4-methylpiperazin-1-yl)methyl)-4-(trifluoromethyl)isoindolin-1-one]
IC50 [1]: 38 nM | (fold-selectivity) [1]: 0.82x | IC50 [2]: 47 nM

COCC1CCN(Cc2cc3c(c(C(F)(F)F)c2)CN(c2cccc(C4([C@H](F)c5nncn5C)COC4)c2)C3=O)CC1 [Compound 146, (S)-2-(3-(3-(fluoro(4-methyl-4H-1,2,4-triazol-3-yl)methyl)oxetan-3-yl)phenyl)-6-((4-(methoxymethyl)piperidin-1-yl)methyl)-4-(trifluoromethyl)isoindolin-1-one]
IC50 [1]: 480 nM | (fold-selectivity) [1]: 1.1x | IC50 [2]: 430 nM

Cn1cnnc1[C@H](F)[C@@](C)(F)c1cccc(N2Cc3c(cc(CN4CC(C)(F)C4)cc3C(F)(F)F)C2=O)c1 [Compound 33, 2-(3-((1 S,2S)-1,2-difluoro-1-(4-methyl-4H-1,2,4-triazol-3-yl)propan-2-yl)phenyl)-6-((3-fluoro-3-methylazetidin-1-yl)methyl)-4-(trifluoromethyl)isoindolin-1-one]
IC50 [1]: 1900 nM | (fold-selectivity) [1]: 2.1x | IC50 [2]: 890 nM
